The values below come from patent US20230365639A1, “DEFENSIN FRAGMENT DERIVED LIPOPEPTIDES FOR TREATMENT OF DRUG-RESISTANT MICROORGANISMS” (priority 2020, published 2023).

Assay [1] has as its system C. rodentium strain ICC180. Kind of assay: Established gastrointestinal infection caused by C. rodentium. Format: in vivo, mice. To be noted: two doses of 250 μg orally 5 days post infection; content or tissue not specified. On the procedure: All mice were euthanized by asphyxiation with CO2 at indicated time points. Intestinal tissues (small intestine, cecum, colon) were removed aseptically. To collect intestinal content, organs were flushed with PBS. Organs were opened longitudinally, cleaned thoroughly with PBS and weighted. Organs and content were homogenized in PBS using a Polytron homogenizer (Kinemtatica). Dilutions of homogenized samples were plated on LB plates containing 50 μg/ml kanamycin to determine CFUs.
Methods: Citrobacter rodentium infection. Bioluminescence expressing C. rodentium strain ICC180 was used for all infection experiments (Wiles et al., 2004). C. rodentium inoculae were prepared by culturing bacteria overnight at 37° C. in LB broth with 50 μg/mI kanamycin. Subsequently, the culture was diluted 1:100 in fresh medium, and sub-cultured for 4 hours at 37° C. in LB broth (Thiemann et al., 2017). Bacteria were washed twice in phosphate-buffered saline (PBS). Mice were orally inoculated with 10^8 CFU of C. rodentium diluted in 200 μl PBS. Weight of the mice was monitored and feces was collected for measurements of the pathogen burden. 5 days post infection mice received twice 250 μg peptide solved in 100 μl PBS or only PBS orally. The following day, mice were sacrificed to assess bacterial burden in the lumen and tissues of the cecum and the colon. […]

Assay [2] relates to several pathogenic bacteria. Kind of assay: Radial diffusion assay and MIC screening for antimicrobial activity. The following applies: radial diffusion assay and MIC determinations. Format: cell-based. On the procedure: Methods: Log-phase bacteria were cultivated for up to 18 hours in TSB (TSB, Becton Dickinson, USA), washed and diluted to 4×10^6 CFU in 10 ml agar. Bacteria were incubated in 10 ml of 10 mM sodium phosphate, pH 7.4, containing 0.3 mg/ml of TSB powder and 1% (w/v) low EEO-agarose (AppliChem). Lipopeptides were pipetted into punched wells and diffused into the gel for 3 hours at 37° C. After that, a nutrient-rich gel with 6% TSB (w/v) and 1% agarose in 10 mM sodium phosphate buffer was poured on top of the first gel and incubated for up to 24 hours at 37° C. Then the diameter of inhibition zones was measured.
Clinical isolates of A. baumannii DSM30007, E. faecium DSM2918, K. pneumoniae DSM30104 and P. aeruginosa DSM1117 were provided by the Department for Laboratory Medicine at Robert-Bosch-Hospital Stuttgart, Germany. C. rodentium DSM16636 and E. coli DSM8695 were obtained from the Deutsche Sammlung von Mikroorganismen and Zellkultur GmbH Braunschweig, Germany. […]

As for Pam2-Glc-Suc-RGKAKCCK [Pam-1], in assay [1], the “CFU's of C. rodentium in cecum” value is “did not reduce” and the “CFU's of C. rodentium in colon” value was “did not reduce”. Also, the “antimicrobial activity, inhibition of bacterial growth of the tested strains” value in assay [2] was “generally inactive”.
